Experimental data from patent publication US5945436A, “Pyridylmethyl nitriles, amides and thioamides useful as fungicides” (Uniroyal Chemical Company, Inc., priority 1997, dated 1999).

Tests used:
[1] = test system: Fusarium oxysporum; assay: Fungal growth inhibition, treated disc on agar (FUS OXY); format: cell-based; details: disc dipped in 500 mg/l, 29° C.; for inhibition at 500 µg/mL: Fusarium oxysporum, read-out: Percent Growth Inhibition, FUS OXY
[2] = test system: Scierotinia minor; assay: Fungal growth inhibition, treated disc on agar (SCL MIN); format: cell-based; details: disc dipped in 500 mg/l, 29° C.; for inhibition at 500 µg/mL: read-out: Percent Growth Inhibition, SCL MIN
[3] = test system: Rhizoctonia solani; assay: Fungal growth inhibition, treated disc on agar (RHI SOL); format: cell-based; details: disc dipped in 500 mg/l, 29° C.; for inhibition at 500 µg/mL: Rhizoctonia solani, read-out: Percent Growth Inhibition, RHI SOL
Method: (§2) The treated and untreated discs were then placed on agar plates and one of the following fungus species: Septoria nodorum (SEP NOD), Botrytis cinerea (BOT CIN), Fusarium oxysporum (FUS OXY), Pythium ultimum (PYT ULT), Rhizoctonia solani (RHI SOL), Colletotrichum gossypii (COL GOS), and Scierotinia minor (SCL MIN), was added to the center of each disc in the form of a culture plug with the fungus mat in contact with the paper of the test disc. Cercosporidium personatum (CER PER), was added to discs as a spore suspension (20,000 spores/ml) to the disc (two drops of spore suspension per disc), rather than a mycelial culture plug. The plates were then incubated at 29° C. in an oven.
(§3) With the exception of the discs containing Cercosporidium personatum, the discs were evaluated by first measuring the radius from the center of the fungus colony on the treated discs and on the untreated discs. Percent growth inhibition of each of the compounds tested was determined as a function of the difference between the radius of the fungus colony on the treated disc versus the radius of the fungus colony on the untreated disc.

[4] = test system: Erysiphe graminis; assay: Powdery mildew of barley, systemic root uptake (BMS); format: in vivo; details: 45 ml of 250 mg/l, 8 days after inoculation
In short: (§1)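 Pot soil of barley (BMS) and cucumber (CMS) plants was drenched with 45 ml of a 250 mg/l acetone/Tween 20 aqueous emulsion, with untreated plants as controls. Disease was scored on a rating scale that included intermediate grades.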

[5] = test system: Erysiphe graminis; assay: Powdery mildew in barley, foliar application (ERY GRA); format: in vivo; details: foliar, 1,000 mg/l, 8 days after inoculation; for pest or weed control at 1000 µg/mL: Blumeria graminis, foliar, 192 h, read-out: Percent Reduction of Disease, ERY GRA
In short: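 'Robust' barley plants sprayed with acetone/TWEEN 20 aqueous emulsion at 1,000 mg/l, dried, then kept at 21° C in a greenhouse. Inoculated by distributing Erysiphe graminis spores from infected plants. Percent control computed from disease scores vs unsprayed control pots.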

[6] = test system: Cercosporidium personatum; assay: Fungal germination and growth, treated disc on agar, scored (CER PER); format: cell-based; design: key: 100: Complete inhibition of germination and growth.; 80: Nearly complete inhibition but some growth.; 50: Partial inhibition of growth or, early complete inhibition but later growth begins.; 20: Some inhibition of growth, but not significant.; 0: No inhibition of growth; details: disc dipped in 500 mg/l, 29° C., numerical score 0-100, spore suspension
Source text: Filter paper discs, each 11 mm. in diameter, were dipped in each of the test solutions. The discs were allowed to air dry to drive off the acetone solvent. A number of untreated discs were used as controls. The treated and untreated discs were then placed on agar plates and one of the following fungus species: Septoria nodorum (SEP NOD), Botrytis cinerea (BOT CIN), Fusarium oxysporum (FUS OXY), Pythium ultimum ([…]), Rhizoctonia solani (RHI SOL), Colletotrichum gossypii (COL GOS), and Scierotinia minor (SCL MIN), was added to the center of each disc in the form of a culture plug with the fungus mat in contact with the paper of the test disc. Cercosporidium personatum (CER PER), was added to discs as a spore suspension (20,000 spores/ml) to the disc (two drops of spore suspension per disc), rather than a mycelial culture plug. The plates were then incubated at 29° C. in an oven. In the case of the Cercosporidium personatum (CER PER) fungi, scoring was done on a numerical basis as follows: 100=Complete inhibition of germination and growth. 80=Nearly complete inhibition but some growth. 50=Partial inhibition of growth or, early complete inhibition but later growth begins. 20=Some inhibition of growth, but not significant. 0=No inhibition of growth. The results of all the above tests appear in Table III below under the headings "SEP NOD," "BOT CIN," "FUS OXY," "[…]" "COL GOS" and "CER PER".

[7] = test system: Helminthosporium sativum; assay: Barley spot blotch, foliar treatment (HEL SAT); format: in vivo; details: foliar, 1,000 mg/l; for pest or weed control at 1000 µg/mL: Helminthosporium, foliar, 216 h, read-out: Percent Reduction of Disease, HEL SAT
In short: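 Six-day-old "Robust" barley, 10 plants per pot, sprayed at 1,000 mg/l (acetone solution emulsified in water with TWEEN 20) or left unsprayed as controls. All plants then inoculated with H. sativum spores, held 24 h at 99% humidity, then 8 days in greenhouse at 21° C. Percent control computed.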

[8] = test system: Botrytis cinerea; assay: Fungal growth inhibition, treated disc on agar (BOT CIN); format: cell-based; details: disc dipped in 500 mg/l, 29° C.; for inhibition at 500 µg/mL: Botrytis cinerea, read-out: Percent Growth Inhibition, BOT CIN
Method: as §2, §3

[9] = test system: Erysiphe cichoracearum; assay: Powdery mildew of cucumber, systemic root uptake (CMS); format: in vivo; details: 45 ml of 250 mg/l, 8 days after inoculation
In short: as §1

SMILES	Percent Growth Inhibition, FUS OXY [1] [%]	Percent Growth Inhibition, SCL MIN [2] [%]	Percent Growth Inhibition, RHI SOL [3] [%]	Percent Reduction of Disease, BMS [4] [%]	Percent Reduction of Disease, ERY GRA [5] [%]	CER PER inhibition score [6]	Percent Reduction of Disease, HEL SAT [7] [%]	Percent Growth Inhibition, BOT CIN [8] [%]	Percent Reduction of Disease, CMS [9] [%]	inhibition at 500 µg/mL [1] [%]	inhibition at 500 µg/mL [2] [%]	inhibition at 500 µg/mL [3] [%]	pest or weed control at 1000 µg/mL [5] [%]	pest or weed control at 1000 µg/mL [7] [%]	inhibition at 500 µg/mL [8] [%]
CCCCCC(C#N)(CCc1ccc(OC)cc1)c1ccccn1 (stereo not drawn) [Compound 30]	100	100	10	0	100	0	90	88	0	–	–	–	–	–	–
CCCCC(C#N)(CCc1ccc(OC)cc1)c1ccccn1 (stereo not drawn) [Compound 31]	83	75	5	0	20	0	90	89	0	–	–	–	–	–	–
N#CC(CCCc1ccc(Cl)cc1)(CC1CC1)c1ccccn1 (stereo not drawn) [Compound 32]	100	98	0	0	100	0	90	96	0	–	–	–	–	–	–
C=CCC(C#N)(CCc1ccc(C)cc1)c1cccnc1 (stereo not drawn) [Compound 33]	–	–	–	40	–	0	–	–	20	100	100	0	100	100	98
CCCCC(C#N)(CCc1ccc(OCC)cc1)c1cccnc1 (stereo not drawn) [Compound 35]	30	88	–	0	–	0	–	–	0	–	–	40	85	100	91
CCCCCCC(C#N)(CCc1ccc(OC)cc1)c1cccnc1 (stereo not drawn) [Compound 36]	–	–	–	0	–	0	–	–	0	80	100	25	85	100	45
COc1ccc(CCC(C#N)(CC2CC2)c2cccnc2)cc1 (stereo not drawn) [Compound 37]	–	–	–	0	–	0	–	–	0	100	100	13	92	100	100
C#CCC(C#N)(CCc1ccc(OC)cc1)c1cccnc1 (stereo not drawn) [Compound 38]	–	–	–	0	–	0	–	–	0	100	46	0	83	100	100
CC(C)CC(C#N)(CCc1ccc(F)cc1)c1cccnc1 (stereo not drawn) [Compound 39]	–	–	–	0	–	0	–	–	0	30	42	11	92	100	57
C=CCC(C#N)(CCc1ccc(OCC)cc1)c1cccnc1 (stereo not drawn) [Compound 40]	–	–	–	0	–	0	–	–	0	100	100	0	67	100	100
C#CCC(C#N)(CCc1ccc(F)cc1)c1cccnc1 (stereo not drawn) [Compound 41]	–	–	–	0	–	0	–	–	0	30	48	26	92	100	32
CCCCC(C#N)(CCc1ccc(OCC)cc1)c1cccnc1.Cl (stereo not drawn) [Compound 42, α-butyl-4-ethoxy-α-(3-pyridinyl)-benzenebutanenitrile hydrochloride]	100	44	32	0	92	0	100	100	0	–	–	–	–	–	–
CCOc1ccc(CCC(C#N)(CC(C)C)c2cccnc2)cc1 (stereo not drawn) [Compound 43]	–	–	–	0	–	100	–	–	0	100	100	48	92	100	100
CCCCCCC(C#N)(CCc1ccc(OCC)cc1)c1cccnc1 (stereo not drawn) [Compound 44]	–	–	–	0	–	100	–	–	0	8	100	30	83	100	43
CCCCCCC(C#N)(CCc1ccc(F)cc1)c1cccnc1 (stereo not drawn) [Compound 45]	–	–	–	0	–	100	–	–	67	14	100	6	92	100	100
CCCC(C#N)(CCc1ccc(OCC)cc1)c1cccnc1 (stereo not drawn) [Compound 46]	–	–	–	0	–	0	–	–	0	100	100	8	92	100	100
CC(C)=CCC(C#N)(CCc1ccc(F)cc1)c1cccnc1 (stereo not drawn) [Compound 47]	–	–	–	0	–	0	–	–	0	50	100	45	70	100	100
COc1ccc(CCC(C#N)(CC=C(C)C)c2cccnc2)cc1 (stereo not drawn) [Compound 48]	–	–	–	0	–	50	–	–	0	100	100	28	67	100	100
